{"source": "patent US12577190B2", "about": "“Method for producing polyol-based esters of ketocarboxylic acids” (KetoLipix Therapeutics GmbH, priority 2019, dated 2026)", "key": {"[1]": {"tested_on": "pancreatin (Panzytrat 40,000)", "protocol": "Both media are from the company Biorelevant®, Ltd. in Great Britain. In addition, in some experiments porcine pancreas is added (Panzytrat® 40,000, Fa. Allergan).\nThe pancreatin is used in the form of the commercially available product Panzytrat® 40,000 from the Allergan company. The whole mixture is stirred on a hot plate at 50° C.; the course of the reaction is determined and monitored by continuously recording the acid number over time."}, "[2]": {"settings": "even if several grams are taken; cited from earlier work"}}}
{"molecule": "3-oxobutyric acid tri-diglycerol ester", "values": [{"measurement": "cleavage by pancreatin", "setting": "[1]", "result": "cleaved"}]}
{"molecule": "3-oxobutyric acid mono-diglycerol ester", "values": [{"measurement": "cleavage by pancreatin", "setting": "[1]", "result": "cleaved"}]}
{"molecule": "3-oxobutyric acid di-diglycerol ester", "values": [{"measurement": "cleavage by pancreatin", "setting": "[1]", "result": "cleaved"}]}
{"molecule": "CC(O)CC(=O)O", "note": "(stereo not shown) [3-hydroxybutyric acid]", "values": [{"measurement": "duration of ketosis", "setting": "[2]", "result": "three to four"}]}
